In the supplement of paper PMC10307832:

Key:
Assay in all cases: relative viability (nuclei count vs DMSO), 5 days (fraction); higher = more cells survive
Dabrafenib + Linsitinib = compound: CC(C)(C)c1nc(-c2cccc(NS(=O)(=O)c3c(F)cccc3F)c2F)c(-c2ccnc(N)n2)s1 [Dabrafenib] + C[C@]1(O)C[C@@H](c2nc(-c3ccc4ccc(-c5ccccc5)nc4c3)c3c(N)nccn32)C1 [Linsitinib] (partner 1 µM)
How it was run: (§1)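 Medians of duplicate plates are given as relative viability. That measure is the nuclei count in treated wells divided by the count in vehicle wells. Counts were taken on 4× images of lung cancer cell lines in 1536-well plates, 5 days after pin-tool dosing the day after seeding with one drug alone or a fixed anchor-drug dose plus five library-drug doses (not always all listed) in √10 steps.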

Dabrafenib + Crizotinib = compound: CC(C)(C)c1nc(-c2cccc(NS(=O)(=O)c3c(F)cccc3F)c2F)c(-c2ccnc(N)n2)s1 [Dabrafenib] + C[C@@H](Oc1cc(-c2cnn(C3CCNCC3)c2)cnc1N)c1c(Cl)ccc(F)c1Cl [Crizotinib] (partner 1 µM)
How it was run: as §1

Dabrafenib + Foretinib = compound: CC(C)(C)c1nc(-c2cccc(NS(=O)(=O)c3c(F)cccc3F)c2F)c(-c2ccnc(N)n2)s1 [Dabrafenib] + COc1cc2c(Oc3ccc(NC(=O)C4(C(=O)Nc5ccc(F)cc5)CC4)cc3F)ccnc2cc1OCCCN1CCOCC1 [Foretinib] (partner 0.25 µM)
How it was run: as §1

VX-702 + Pictilisib = compound: NC(=O)c1ccc(N(C(N)=O)c2c(F)cccc2F)nc1-c1ccc(F)cc1F [VX-702] + CS(=O)(=O)N1CCN(Cc2cc3nc(-c4cccc5[nH]ncc45)nc(N4CCOCC4)c3s2)CC1 [Pictilisib] (partner 1 µM)
How it was run: as §1

NCI-H2087
relative viability (Dabrafenib + Linsitinib; first compound 0.003 µM): 0.979
relative viability (Dabrafenib + Linsitinib; first compound 0.009487 µM): 0.862
relative viability (Dabrafenib + Linsitinib; first compound 0.03 µM): 0.779
relative viability (Dabrafenib + Linsitinib; first compound 0.09487 µM): 0.805
relative viability (Dabrafenib + Linsitinib; first compound 0.3 µM): 0.638
relative viability (Dabrafenib + Crizotinib; first compound 0.003 µM): 0.821
relative viability (Dabrafenib + Crizotinib; first compound 0.009487 µM): 0.788
relative viability (Dabrafenib + Crizotinib; first compound 0.03 µM): 0.715
relative viability (Dabrafenib + Crizotinib; first compound 0.09487 µM): 0.736
relative viability (Dabrafenib + Crizotinib; first compound 0.3 µM): 0.675
relative viability (Dabrafenib + Foretinib; first compound 0.009487 µM): 1.04
relative viability (Dabrafenib + Foretinib; first compound 0.03 µM): 0.988
relative viability (Dabrafenib + Foretinib; first compound 0.09487 µM): 0.959
relative viability (Dabrafenib + Foretinib; first compound 0.3 µM): 1.09
relative viability (VX-702 + Pictilisib; first compound 0.02 µM): 0.861
relative viability (VX-702 + Pictilisib; first compound 0.2 µM): 0.729
relative viability (VX-702 + Pictilisib; first compound 0.6325 µM): 0.881
relative viability (VX-702 + Pictilisib; first compound 2 µM): 0.783

NCI-H2126
relative viability (Dabrafenib + Linsitinib; first compound 0.003 µM): 0.698
relative viability (Dabrafenib + Linsitinib; first compound 0.009487 µM): 0.725
relative viability (Dabrafenib + Linsitinib; first compound 0.03 µM): 0.681
relative viability (Dabrafenib + Linsitinib; first compound 0.09487 µM): 0.757
relative viability (Dabrafenib + Linsitinib; first compound 0.3 µM): 0.715
relative viability (Dabrafenib + Crizotinib; first compound 0.003 µM): 1.01
relative viability (Dabrafenib + Crizotinib; first compound 0.009487 µM): 1.02
relative viability (Dabrafenib + Crizotinib; first compound 0.03 µM): 0.986
relative viability (Dabrafenib + Crizotinib; first compound 0.09487 µM): 1.01
relative viability (Dabrafenib + Crizotinib; first compound 0.3 µM): 1.01
relative viability (Dabrafenib + Foretinib; first compound 0.003 µM): 1.15
relative viability (Dabrafenib + Foretinib; first compound 0.009487 µM): 1.22
relative viability (Dabrafenib + Foretinib; first compound 0.03 µM): 1.15
relative viability (Dabrafenib + Foretinib; first compound 0.09487 µM): 1
relative viability (Dabrafenib + Foretinib; first compound 0.3 µM): 1.43
relative viability (VX-702 + Pictilisib; first compound 0.02 µM): 0.502
relative viability (VX-702 + Pictilisib; first compound 0.2 µM): 0.487
relative viability (VX-702 + Pictilisib; first compound 0.6325 µM): 0.459
relative viability (VX-702 + Pictilisib; first compound 2 µM): 0.448

NCI-H2228
relative viability (Dabrafenib + Linsitinib; first compound 0.003 µM): 0.579
relative viability (Dabrafenib + Linsitinib; first compound 0.009487 µM): 0.839
relative viability (Dabrafenib + Linsitinib; first compound 0.03 µM): 0.524
relative viability (Dabrafenib + Linsitinib; first compound 0.09487 µM): 0.782
relative viability (Dabrafenib + Linsitinib; first compound 0.3 µM): 0.81
relative viability (Dabrafenib + Crizotinib; first compound 0.003 µM): 0.457
relative viability (Dabrafenib + Crizotinib; first compound 0.009487 µM): 0.504
relative viability (Dabrafenib + Crizotinib; first compound 0.03 µM): 0.52
relative viability (Dabrafenib + Crizotinib; first compound 0.09487 µM): 0.495
relative viability (Dabrafenib + Crizotinib; first compound 0.3 µM): 0.571
relative viability (Dabrafenib + Foretinib; first compound 0.009487 µM): 0.95
relative viability (Dabrafenib + Foretinib; first compound 0.03 µM): 0.797
relative viability (Dabrafenib + Foretinib; first compound 0.09487 µM): 0.749
relative viability (Dabrafenib + Foretinib; first compound 0.3 µM): 0.97
relative viability (VX-702 + Pictilisib; first compound 0.02 µM): 0.364
relative viability (VX-702 + Pictilisib; first compound 0.2 µM): 0.431
relative viability (VX-702 + Pictilisib; first compound 0.6325 µM): 0.343
relative viability (VX-702 + Pictilisib; first compound 2 µM): 0.507

NCI-H2347
relative viability (Dabrafenib + Linsitinib; first compound 0.003 µM): 0.675
relative viability (Dabrafenib + Linsitinib; first compound 0.009487 µM): 0.965
relative viability (Dabrafenib + Linsitinib; first compound 0.03 µM): 1.08
relative viability (Dabrafenib + Linsitinib; first compound 0.09487 µM): 1.03
relative viability (Dabrafenib + Linsitinib; first compound 0.3 µM): 0.942
relative viability (Dabrafenib + Crizotinib; first compound 0.003 µM): 0.441
relative viability (Dabrafenib + Crizotinib; first compound 0.009487 µM): 0.698
relative viability (Dabrafenib + Crizotinib; first compound 0.03 µM): 0.67
relative viability (Dabrafenib + Crizotinib; first compound 0.09487 µM): 0.674
relative viability (Dabrafenib + Crizotinib; first compound 0.3 µM): 0.62
relative viability (Dabrafenib + Foretinib; first compound 0.009487 µM): 1.01
relative viability (Dabrafenib + Foretinib; first compound 0.3 µM): 0.932
relative viability (VX-702 + Pictilisib; first compound 0.02 µM): 0.754
relative viability (VX-702 + Pictilisib; first compound 0.2 µM): 0.596
relative viability (VX-702 + Pictilisib; first compound 0.6325 µM): 0.703
relative viability (VX-702 + Pictilisib; first compound 2 µM): 0.347

NCI-H2405
relative viability (Dabrafenib + Linsitinib; first compound 0.009487 µM): 0.967
relative viability (Dabrafenib + Linsitinib; first compound 0.09487 µM): 0.735
relative viability (Dabrafenib + Linsitinib; first compound 0.3 µM): 0.721
relative viability (Dabrafenib + Crizotinib; first compound 0.009487 µM): 0.78
relative viability (Dabrafenib + Crizotinib; first compound 0.03 µM): 0.52
relative viability (Dabrafenib + Crizotinib; first compound 0.09487 µM): 0.772
relative viability (Dabrafenib + Crizotinib; first compound 0.3 µM): 0.82
relative viability (Dabrafenib + Foretinib; first compound 0.009487 µM): 0.985
relative viability (Dabrafenib + Foretinib; first compound 0.09487 µM): 0.949
relative viability (Dabrafenib + Foretinib; first compound 0.3 µM): 1.07
relative viability (VX-702 + Pictilisib; first compound 0.02 µM): 0.459
relative viability (VX-702 + Pictilisib; first compound 0.2 µM): 0.41
relative viability (VX-702 + Pictilisib; first compound 0.6325 µM): 0.459
relative viability (VX-702 + Pictilisib; first compound 2 µM): 0.572

NCI-H3122
relative viability (Dabrafenib + Linsitinib; first compound 0.003 µM): 0.943
relative viability (Dabrafenib + Linsitinib; first compound 0.009487 µM): 1.02
relative viability (Dabrafenib + Linsitinib; first compound 0.03 µM): 1.01
relative viability (Dabrafenib + Linsitinib; first compound 0.09487 µM): 1.01
relative viability (Dabrafenib + Linsitinib; first compound 0.3 µM): 1.04
relative viability (Dabrafenib + Crizotinib; first compound 0.003 µM): 0.31
relative viability (Dabrafenib + Crizotinib; first compound 0.009487 µM): 0.272
relative viability (Dabrafenib + Crizotinib; first compound 0.03 µM): 0.274
relative viability (Dabrafenib + Crizotinib; first compound 0.09487 µM): 0.259
relative viability (Dabrafenib + Crizotinib; first compound 0.3 µM): 0.361
relative viability (Dabrafenib + Foretinib; first compound 0.003 µM): 1.04
relative viability (Dabrafenib + Foretinib; first compound 0.009487 µM): 0.959
relative viability (Dabrafenib + Foretinib; first compound 0.03 µM): 0.935
relative viability (Dabrafenib + Foretinib; first compound 0.09487 µM): 0.904
relative viability (Dabrafenib + Foretinib; first compound 0.3 µM): 0.97
relative viability (VX-702 + Pictilisib; first compound 0.02 µM): 0.572
relative viability (VX-702 + Pictilisib; first compound 0.2 µM): 0.59
relative viability (VX-702 + Pictilisib; first compound 0.6325 µM): 0.578
relative viability (VX-702 + Pictilisib; first compound 2 µM): 0.589

PC-3 [JPC-3]
relative viability (Dabrafenib + Linsitinib; first compound 0.003 µM): 0.943
relative viability (Dabrafenib + Linsitinib; first compound 0.009487 µM): 0.977
relative viability (Dabrafenib + Linsitinib; first compound 0.03 µM): 0.955
relative viability (Dabrafenib + Linsitinib; first compound 0.09487 µM): 0.964
relative viability (Dabrafenib + Linsitinib; first compound 0.3 µM): 0.978
relative viability (Dabrafenib + Crizotinib; first compound 0.003 µM): 0.95
relative viability (Dabrafenib + Crizotinib; first compound 0.009487 µM): 1.03
relative viability (Dabrafenib + Crizotinib; first compound 0.03 µM): 0.978
relative viability (Dabrafenib + Crizotinib; first compound 0.09487 µM): 1.02
relative viability (Dabrafenib + Crizotinib; first compound 0.3 µM): 1
relative viability (Dabrafenib + Foretinib; first compound 0.003 µM): 1
relative viability (Dabrafenib + Foretinib; first compound 0.009487 µM): 1.09
relative viability (Dabrafenib + Foretinib; first compound 0.03 µM): 1.1
relative viability (Dabrafenib + Foretinib; first compound 0.09487 µM): 0.997
relative viability (Dabrafenib + Foretinib; first compound 0.3 µM): 1.01
relative viability (VX-702 + Pictilisib; first compound 0.02 µM): 0.806
relative viability (VX-702 + Pictilisib; first compound 0.2 µM): 0.737
relative viability (VX-702 + Pictilisib; first compound 0.6325 µM): 0.884
relative viability (VX-702 + Pictilisib; first compound 2 µM): 0.388

PC-14
relative viability (Dabrafenib + Linsitinib; first compound 0.003 µM): 0.956
relative viability (Dabrafenib + Linsitinib; first compound 0.009487 µM): 1.03
relative viability (Dabrafenib + Linsitinib; first compound 0.03 µM): 0.957
relative viability (Dabrafenib + Linsitinib; first compound 0.09487 µM): 0.975
relative viability (Dabrafenib + Linsitinib; first compound 0.3 µM): 0.984
relative viability (Dabrafenib + Crizotinib; first compound 0.003 µM): 0.938
relative viability (Dabrafenib + Crizotinib; first compound 0.009487 µM): 0.867
relative viability (Dabrafenib + Crizotinib; first compound 0.03 µM): 0.878
relative viability (Dabrafenib + Crizotinib; first compound 0.09487 µM): 0.974
relative viability (Dabrafenib + Crizotinib; first compound 0.3 µM): 0.982
relative viability (Dabrafenib + Foretinib; first compound 0.003 µM): 0.861
relative viability (Dabrafenib + Foretinib; first compound 0.009487 µM): 0.972
relative viability (Dabrafenib + Foretinib; first compound 0.03 µM): 0.933
relative viability (Dabrafenib + Foretinib; first compound 0.09487 µM): 0.979
relative viability (Dabrafenib + Foretinib; first compound 0.3 µM): 0.958
relative viability (VX-702 + Pictilisib; first compound 0.02 µM): 0.629
relative viability (VX-702 + Pictilisib; first compound 0.2 µM): 0.608
relative viability (VX-702 + Pictilisib; first compound 0.6325 µM): 0.625
relative viability (VX-702 + Pictilisib; first compound 2 µM): 0.807

RERF-LC-KJ
relative viability (Dabrafenib + Linsitinib; first compound 0.003 µM): 0.876
relative viability (Dabrafenib + Linsitinib; first compound 0.009487 µM): 0.989
relative viability (Dabrafenib + Linsitinib; first compound 0.03 µM): 0.871
relative viability (Dabrafenib + Linsitinib; first compound 0.09487 µM): 0.83
relative viability (Dabrafenib + Linsitinib; first compound 0.3 µM): 1.01
relative viability (Dabrafenib + Crizotinib; first compound 0.003 µM): 0.845
relative viability (Dabrafenib + Crizotinib; first compound 0.009487 µM): 0.791
relative viability (Dabrafenib + Crizotinib; first compound 0.03 µM): 0.769
relative viability (Dabrafenib + Crizotinib; first compound 0.09487 µM): 0.779
relative viability (Dabrafenib + Crizotinib; first compound 0.3 µM): 0.846
relative viability (Dabrafenib + Foretinib; first compound 0.003 µM): 0.854
relative viability (Dabrafenib + Foretinib; first compound 0.009487 µM): 0.859
relative viability (Dabrafenib + Foretinib; first compound 0.03 µM): 0.845
relative viability (Dabrafenib + Foretinib; first compound 0.09487 µM): 0.935
relative viability (Dabrafenib + Foretinib; first compound 0.3 µM): 1.09
relative viability (VX-702 + Pictilisib; first compound 0.02 µM): 0.562
relative viability (VX-702 + Pictilisib; first compound 0.2 µM): 0.435
relative viability (VX-702 + Pictilisib; first compound 0.6325 µM): 0.625
relative viability (VX-702 + Pictilisib; first compound 2 µM): 0.601
